Test results published in patent US20250235460A1, “COMBINATION THERAPY USING GLUCOSE-DEPENDENT INSULINOTROPIC POLYPEPTIDE RECEPTOR ANTAGONIST COMPOUNDS AND GLP-1 RECEPTOR AGONIST COMPOUNDS” (Pfizer Inc., priority 2024, published 2025).
pEC50: −log10 of the molar value.

Columns and labels:
[1] = biological target: human GLP-1R (Homo sapiens, UniProt P43220, G168S); test: CHO GLP-1R Clone H6 cAMP HTRF agonist assay (Assay 1, high receptor density); type: cell-based; conditions: for pEC50: CHO GLP-1R clone H6, cAMP HTRF, geometric mean; for Emax: CHO GLP-1R clone H6, arithmetic mean, relative to saturating GLP-1 (1 μM), read-out: Assay 1 Emax (%)
human GLP-1R (Homo sapiens, UniProt P43220, G168S), sequence (P43220 24-463 G168S): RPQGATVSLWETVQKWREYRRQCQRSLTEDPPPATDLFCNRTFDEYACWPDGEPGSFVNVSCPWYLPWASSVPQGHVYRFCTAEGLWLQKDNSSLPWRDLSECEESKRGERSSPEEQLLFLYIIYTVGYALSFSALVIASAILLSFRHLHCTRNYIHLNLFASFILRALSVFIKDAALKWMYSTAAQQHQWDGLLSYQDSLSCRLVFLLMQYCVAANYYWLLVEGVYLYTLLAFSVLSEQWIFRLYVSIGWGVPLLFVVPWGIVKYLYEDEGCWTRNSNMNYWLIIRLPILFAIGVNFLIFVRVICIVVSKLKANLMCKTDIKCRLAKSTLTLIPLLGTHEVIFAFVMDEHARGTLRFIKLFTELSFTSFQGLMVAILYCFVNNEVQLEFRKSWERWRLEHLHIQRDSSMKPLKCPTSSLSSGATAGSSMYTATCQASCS
In short: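 Two significant figures are used throughout. Each EC50 is the geometric mean of its replicates, and each Emax is the arithmetic mean.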

[2] = biological target: human GLP-1R (Homo sapiens, UniProt P43220, L260F); test: CHO GLP-1R Clone C6 cAMP HTRF agonist assay (Assay 2, low receptor density); type: cell-based; conditions: for pEC50: CHO GLP-1R clone C6, cAMP HTRF, geometric mean; for Emax: CHO GLP-1R clone C6, arithmetic mean, relative to saturating GLP-1 (1 μM)
human GLP-1R (Homo sapiens, UniProt P43220, L260F), sequence (P43220 24-463 L260F): as the sequence (P43220 24-463 G168S) above, with S145G, L237F counted along it
Source text: In Table 5 and Table 6, assay data are presented to two (2) significant figures as the geometric mean (EC50s) and arithmetic mean (Emax) based on the number of replicates listed (Number). A blank cell means there was no data for that Example or the Emax was not calculated.

pEC50 [1]	Emax [1]	pEC50 [2]	Emax [2]	SMILES
7.36	72%	6.31	98%	O=C(O)c1ccc2nc(CN3CCC(c4cccc(OCc5ccc(Cl)cc5F)n4)CC3)n(Cc3cn[nH]c3)c2c1 [Compound 290B, 2-[(4-{6-[(4-chloro-2-fluorobenzyl)oxy]pyridin-2-yl}piperidin-1-yl)methyl]-1-(1H-pyrazol-4-ylmethyl)-1H-benzimidazole-6-carboxylic acid]
8.57	73%	7.54	74%	Cn1c(CN2CCC(c3cccc(OCc4ccccc4F)n3)CC2)nc2ccc(C(=O)O)cc21 [Compound 226B, 2-[(4-{6-[(2-fluorobenzyl)oxy]pyridin-2-yl}piperidin-1-yl)methyl]-1-methyl-1H-benzimidazole-6-carboxylic acid]
8.92	84%	7.62	98%	O=C(O)c1ccc2nc(CN3CCC(c4cccc(OCc5ccc(Cl)cc5F)n4)CC3)n(CCN3CCCC3=O)c2c1 [Compound 239B, 2-[(4-{6-[(4-chloro-2-fluorobenzyl)oxy]pyridin-2-yl}piperidin-1-yl)methyl]-1-[2-(2-oxopyrrolidin-1-yl)ethyl]-1H-benzimidazole-6-carboxylic acid]
9.30	73%	7.66		CCn1nncc1Cn1c(CN2CCN(c3cccc(OCc4ccc(C#N)cc4F)n3)CC2)nc2ccc(C(=O)O)cc21 [Compound 159B, 2-[(4-{6-[(4-cyano-2-fluorobenzyl)oxy]pyridin-2-yl}piperazin-1-yl)methyl]-1-[(1-ethyl-1H-1,2,3-triazol-5-yl)methyl]-1H-benzimidazole-6-carboxylic acid]
9.30	78%	7.80	86%	CC1CN(c2cccc(OCc3ccc(Cl)cc3F)n2)CCN1Cc1nc2ccc(C(=O)O)cc2n1Cc1cocn1 (stereo in doubt) [Compound 240B, 2-{[(2S)-4-{6-[(4-chloro-2-fluorobenzyl)oxy]pyridin-2-yl}-2-methylpiperazin-1-yl]methyl}-1-(1,3-oxazol-4-ylmethyl)-1H-benzimidazole-6-carboxylic acid]

Second part, the molecule before the results:

SMILES	pEC50 [1]	Emax [1]	pEC50 [2]	Emax [2]
CCCn1cnnc1Cn1c(CN2CCC(c3cccc(OCc4ccc(Cl)cc4F)n3)CC2)nc2ccc(C(=O)O)cc21 [Compound 187B, 2-[(4-{6-[(4-chloro-2-fluorobenzyl)oxy]pyridin-2-yl}piperidin-1-yl)methyl]-1-[(4-propyl-4H-1,2,4-triazol-3-yl)methyl]-1H-benzimidazole-6-carboxylic acid]	7.31	71%	5.68	
CCOC(C)Cn1c(CN2CCC(c3cccc(OCc4ccc(Cl)cc4F)n3)CC2)nc2ccc(C(=O)O)cc21 (stereo not shown) [Compound 293B, 2-[(4-{6-[(4-chloro-2-fluorobenzyl)oxy]pyridin-2-yl}piperidin-1-yl)methyl]-1-(2-ethoxypropyl)-1H-benzimidazole-6-carboxylic acid]	7.25	81%	6.23	85%
C[C@H]1CN(c2cccc(OCc3ccc(C#N)cc3F)n2)CCN1Cc1nc2ccc(C(=O)O)nc2n1C[C@@H]1CCO1 [Compound 137B, 2-{[(2S)-4-{6-[(4-cyano-2-fluorobenzyl)oxy]pyridin-2-yl}-2-methylpiperazin-1-yl]methyl}-3-[(2S)-oxetan-2-ylmethyl]-3H-imidazo[4,5-b]pyridine-5-carboxylic acid]	7.05	76%	5.74	89%
Cn1cnnc1Cn1c(CN2CCC(c3cccc(OCc4ccc(Cl)cc4F)n3)CC2)nc2ccc(C(=O)O)cc21 [Compound 345B, 2-[(4-{6-[(4-chloro-2-fluorobenzyl)oxy]pyridin-2-yl}piperidin-1-yl)methyl]-1-[(4-methyl-4H-1,2,4-triazol-3-yl)methyl]-1H-benzimidazole-6-carboxylic acid]	8.21	89%	6.82	97%
